{"source": "patent US12569465B2", "about": "“Method for activating follicles by means of using small-molecule compound, and preparation thereof” (TSINGTAO A-SMART MEDICAL TECHNOLOGY CO., LTD., priority 2020, dated 2026)", "key": {"[1]": {"system": "primordial and primary follicles", "conditions": "rodents; prior studies; cited from earlier work"}, "aromatase [2]": {"system": "aromatase", "experiment": "Aromatase expression in KGN cells", "type": "cell-based, human", "conditions": "VCD 1-1000 nM, 24 h", "description": "(§1) anti-rabbit aromatase (Cat #NBP1-45360, Novus, 1:2000), anti-rabbit phosphor-AKT (Serine 473) (D9E) (Cat #4060, Cell Signaling, 1:500), anti-rabbit phosphor-FoxO1 (Threonine 24)/FoxO3a (Threonine 32) (Cat #9464, Cell Signaling, 1:500), anti-rabbit phosphor-P-S6 (Serine 235/236) (Cat #4858, Cell Signaling, 1:1000), anti-rabbit phosphor-P-S6 (Serine 240/244) (Cat #2215, Cell Signaling, 1:1000), anti-rabbit phosphor-P70S6k (Threonine 389) (Cat #9205, Cell Signaling, 1:1000), anti-rabbit (Cat #7074S, CST) or anti-mouse (Cat #7076S, CST).\n(§2) Human-derived granulocyte-like cell line KGN (provided by Prof. Toshihiko Yanase, Fukuoka University, Japan) was cultured in DMEM/F12 medium. KGN were treated with different concentrations of VCD (0, 1 nM, 10 nM, 100 nM, 1000 nM) for 24 h, using 50 ng/ml FSH as control."}, "[3]": {"system": "PD2 mouse ovaries (primordial follicles)", "experiment": "In vitro culture of PD2 mouse ovaries, follicle counting", "type": "cell-based", "conditions": "VCD 1-1000 nM on first day of culture, then 3 days normal medium, compared with control group", "description": "(§3) Neonatal 2-day (PD2) or 12-day (PD12) C57bl/6 mice (provided by Shandong University Experimental Animal Center) were executed by decapitation and the ovaries and surrounding tissues were dissected and separated under a dissecting microscope, and the excised ovaries were placed in Leibovitz's L-15 medium (containing 10% fetal bovine serum+0.5% penicillin+0.5% streptomycin). The adipose tissue was dissected and separated. The separated ovaries were washed three times in PBS.\n(§4) Configure ovarian medium: 1 mg/ml bovine serum albumin (BSA, Cat #A4161-1G, Sigma), 1 mg/ml AbluMAX II Lipid-Rich BSA (Cat #11021029, Gibco), 5% Insulin-Transferrin-Selenium (ITS-G) (Cat #41400-045, Gibco), 0.5% Penicillin+0.5% Streptomycin and 100 nM VCD were added into DMEM/F12 (Cat #11039-021, Gibco) medium. The prepared medium was mixed and added to a six-well plate with 1.5 ml of medium per well. A sieve (Cat #PICMORG50, Millipore) was put on the medium and placed in the incubator to preheat.\n(§5) The separated ovaries were transferred to the ovarian medium with a pipette, washed three times and placed on the upper sieve of the pre-warmed medium. A drop of medium was added around the ovaries in the upper sieve to keep the area around the ovaries moist. The six-well plates were placed in a 37° C., 5% CO2 incubator for four consecutive days, and the lower layer of medium was changed daily. […]"}, "aromatase [4]": {"system": "aromatase", "experiment": "Aromatase expression in primary mouse granulosa cells", "type": "cell-based", "conditions": "PD20 primary granulosa cells; VCD 1-1000 nM, 24 h", "description": "as §1\nGranulosa cells were isolated from the ovaries of PD20 mice according to the method described by Reddy P et al, Science 2008, 319(5863):611-613 and Liu Y X et al Biol Reprod 1986, 35(1):27-36, from which primary granulosa cell lines were obtained. They were treated with different concentrations of VCD (0, 1 nM, 10 nM, 100 nM, 1000 nM) for 24 h, using 50 ng/ml FSH as control."}, "[5]": {"system": "PD12 C57bl/6 female mice ovaries", "experiment": "Follicle development in neonatal mice in vivo", "parameters": "species or system mouse", "conditions": "20 or 160 mg/kg intraperitoneal, 5 consecutive days, compared to saline control", "procedure": "PD12 C57bl/6 mice in the same litter were divided into experimental and control groups according to body weight. The experimental mice were weighed and given either 20 mg/kg or 160 mg/kg of VCD by intraperitoneal injection, while the control mice were given the same volume of saline. After […] of continuous administration, the mice were executed and the ovaries were dissected to separate the adipose tissue under the microscope and fixed in 4% PFA. Dehydrated sections were used to observe and count the development of follicles in the ovaries at different times.\nAccording to the method described in Example 1, the same litter of PD12 C57bl/6 female mice was divided into experimental and control groups according to body weight and given 20 mg/kg or 160 mg/kg of VCD by intraperitoneal injection, while the control mice were given the same volume of saline. Each group (N=6) was administered for 5 consecutive days, and then the mice were executed and the collected ovaries were stained to observe the morphology as shown in FIG. 3A (yellow arrows indicate early sinus follicles and red arrows indicate sinus follicles)."}, "[6]": {"system": "10-12 month old C57bl/6 ovaries", "experiment": "Ovulation stimulation experiment in old mice", "type": "in vivo, mouse", "conditions": "80 mg/kg intraperitoneal, 5 days, then PMSG/hCG", "procedure": "10-12 month old C57bl/6 […] were divided into experimental and control groups according to body weight, and the experimental group was weighed and injected intraperitoneally with 80 mg/kg of VCD, while the control group was given the same volume of saline. After 5 days of continuous administration, 5 units of PMSG were injected to the experimental group and the control group, and 10 IU of hCG was injected 48 hours later to induce secondary ovulation. Mice were executed 16 hours after hCG injection, and both oviducts were collected and placed in M2 dissecting solution (Cat #M7167, Sigma), and the oocyte-granulosa cell complexes were seen when cutting the dilated oviducts under a dissecting microscope. The granulosa cell complexes from each mouse were transferred to a droplet of hyaluronidase (Cat #90101, Fujifilm Irvine Scientific) and the number of eggs per mouse was counted under a microscope after the granulosa cells around the oocytes had been digested.\nAccording to the method described in Example 1, 10-12 month old C57bl/6 […] were divided into experimental and control groups according to their body weight, and the experimental group was weighed and injected intraperitoneally with 80 mg/kg of VCD, while the control group was given the same volume of saline. […]"}, "KGN cells": {"system": "KGN cells", "experiment": "Estradiol (E2) levels in KGN cell culture supernatants (ELISA)", "type": "cell-based, human", "conditions": "24 h, versus control group", "procedure": "KGN cell supernatants were collected after 24 hours of cell culture for the detection of E2 levels. The procedure of the assay followed the instructions of the E2 Assay Kit (Human Estradiol (E2) ELISA Kit, Cat #KAQ0621, Invitrogen).\nas §2"}, "[7]": {"system": "PD12 mouse ovaries (secondary follicles)", "experiment": "In vitro culture of PD12 mouse ovaries, secondary follicle counting", "type": "cell-based", "conditions": "4 days with VCD 1-1000 nM, compared to control group", "description": "as §3, §4, §5"}, "PI3K-Akt pathway": {"system": "PI3K-Akt pathway", "experiment": "Western blot for phosphorylation of proteins associated with follicle activation in the ovary", "type": "cell-based", "conditions": "PD2 mouse ovaries; 10 nM VCD for 2-3 min in vitro", "procedure": "PD2 mice were dissected in autopsy solution (Leibovitz's L-15 medium, […], Gibco; +10% fetal bovine serum (FBS)) after execution, washed twice in ovarian medium and incubated in ovarian medium. After incubation in medium with or without VCD for 3 min. ovarian tissue was collected and lysed in RIPA lysis solution (Cat #89900, Thermo) for digestion. Proteins were denatured and separated by SDS PAGE and transferred to PVDF membranes (Millipore). The membranes were incubated with primary antibodies followed by incubation with HRP-conjugated secondary antibodies and the bands were examined using an enhanced chemiluminescence detection kit (Bio-Rad).\nas §1\nTwo-day-old (PD2) mouse ovaries were isolated and cultured in vitro according to the method described in Example 1. […]"}}}
{"smiles": "C1CC2OC2CC1C1CO1", "note": "(stereo not shown) [VCD, 4-vinylcyclohexene diepoxide]", "values": [{"measurement": "ovotoxicity to follicles", "setting": "[1]", "result": "induces atretic degeneration of primordial and primary follicles"}, {"measurement": "expression level of aromatase in KGN", "setting": "aromatase [2]", "result": "significantly increased"}, {"measurement": "number of primordial follicles and early primary follicles", "setting": "[3]", "result": "significantly increased"}, {"measurement": "expression level of aromatase in mouse granulosa cells", "setting": "aromatase [4]", "result": "significantly increased"}, {"measurement": "follicles close to the preovulatory stage in the ovaries", "setting": "[5]", "result": "more follicles close to the preovulatory stage"}, {"measurement": "follicle counts (sinus follicles, corpus luteum) in ovaries", "setting": "[6]", "result": "more sinus follicles as well as newly formed corpus luteum"}, {"measurement": "MII oocytes ovulated", "setting": "[6]; versus saline control", "result": "more oocytes"}, {"measurement": "level of estrogen (E2) in cell supernatant", "setting": "KGN cells", "result": "significantly higher"}, {"measurement": "number of secondary follicles", "setting": "[7]", "result": "significantly increased"}, {"measurement": "activation of PI3K-Akt pathway (phosphorylation of involved proteins, Western blot)", "setting": "PI3K-Akt pathway", "result": "significantly activate"}]}
